Here are results for one sequence from patent US12054562B2, “Cell-permeable inhibitory agent and methods of use thereof in treatment of cognitive and mood disorders” (priority 2015, dated 2024).

In one data set the test system is mice. The note with it: mouse, in vivo. The procedure: In the present study, mice were handled two times a day, 5 min each before start of behavioral experiments. Object recognition was assessed in a circle opaque chamber with the diameter of 38.5 cm in a regular lit room. Each mouse was habituated to the chamber for 5 min since day 3. During the training phase, the mouse was allowed to explore two identical objects for 5 min. The mouse was then returned to its home cage for a retention period of 1 h. The mouse was reintroduced to the training context and presented with one familiar object and one novel object for 5 min. Movement and interaction with the objects was recorded with a video camera that was mounted above the chamber. The exploratory behavior and mouse activity was analyzed blindly by a person with a good training and the software EthoVision, XT v11.5 provided by the Noldus Information Tech Inc., (Leesburg VA, USA). Exploratory behavior was defined as sniffing, licking, or touching the object while facing the object. Memory was assessed by measuring the novelty preference ratio (i.e., the ratio of time spent exploring the novel object to the time spent exploring both objects). […] Total interaction time with both objects was compared between groups to determine whether the treatments affected locomotor activity or exploration during the testing phase.
Specifically, we studied whether the use of the inhibitory peptide with etomidate prevented etomidate-induced memory deficits (attributed to the increase in cell surface expression of α5GABAA receptors). […] Saline and 35% propylene glycol were used as the vehicle control. NOR was conducted the next day.

Data set [1] addresses T1, α5 subunit-radixin interaction (Mus musculus, UniProt P26043).
T1 construct: tissue lysate prepared from the hippocampus of adult mice; from tissue; host or cells: hippocampus of adult mice (C57BL/6J×SvEv)
Kind of data set: Co-immunoprecipitation and Western blot of α5 subunit-radixin coupling in hippocampal tissue lysate. The class given is binding. The settings on record: 20 μM peptide without TAT sequence, one hour incubation. The protocol:
The experiments used tissue lysate prepared from the hippocampus of adult mice (C57BL/6J×SvEv, 2-4 month old, male). Hippocampal tissue was homogenized in ice-cold RIPA buffer (20 mM Tris-HCL, pH 7.5, 150 mM NaCl, 1 mM Na2EDTA, 1 mM EGTA, 1% NP-40, 1% sodium deoxycholate, 2.5 mM sodium pyrophosphate, 1 mM β-glycerophosphate) supplemented with 1 mM sodium orthovanadate and 1% protease inhibitor cocktail and 1% phosphatase inhibitor cocktail (Roche Diagnostics, GmbH, Manheim Germany). The tissue lysate was subsequently spun at 14,000 rpm for 30 min with the Microfuge 22R Centrifuge (Beckman Coulter™, Brea, California, US). The supernatant was collected and frozen at −20 C°. The next day, the supernatant, after thawing, was re-centrifuged at 14,000 rpm for another 30 min to clear the potential undissolved or pellet substances. After spinning twice, the supernatant was collected for subsequent experiments.
One hour following the incubation, the antibodies (2-4 μg) against either α5 subunit (cat #sc—31417, Santa Cruz Biotechnology, Inc., 10410 Finnell St. Dallas, TX, 75220, USA) or radixin (cat #ab91312, Abcam Inc., c/o 913860, PO Box 4090 Stn A, Toronto, ON M5W 0E9), or 4 μg of non-specific IgG protein (cat #sc—2028, Santa Cruz Biotechnology, Inc., 10410 Finnell St. Dallas, TX, 75220, USA), were added to the lysate solution. […]
(A western blot detects proteins with antibodies after separation by electrophoresis.)

A further data set deals with α5GABAA receptors. Kind of data set: Surface biotinylation assay of α5 subunit in ex vivo brain slices after i.p. peptide. On the set-up: species or system mouse. The settings on record: peptide 20 mg/kg, etomidate-treated adult male mice. The procedure: We next asked whether injection of inhibitory peptide, when administered to mice in vivo by I.P. injection, reduced the level of α5GABAA receptors expressed in the hippocampus. To test whether the peptide reduces α5GABAA receptor cell-surface expression in vivo, we took advantage of a mouse model that we developed recently (Zurek, et al., 2014), in which up-regulation of α5GABAA receptor cell surface expression causes memory deficits. Adult mice (22-25 g) were treated with etomidate (8 mg/kg, i.p.), and sacrificed 24 hrs later according to a protocol approved by the Animal Care Committee of the University of Toronto. The hippocampi were collected and subject to experiments. We first measured the level of radixin phosphorylation, because radixin phosphorylation is required for the recruitment of α5GABAA receptors to extrasynaptic sites of the neurons (Loebrich et al., 2006; Hausrat et al., 2015). The antibody against threonine at 564 of radixin, which is specific for radixin phosphorylation involving α5GABAA receptor extra-synaptic trafficking, was used for these studies (Choii et al., 2015; Hausrat et al., 2015). […] We next examined whether the inhibitory peptide prevented α5GABAA receptor from trafficking to surface membrane in vivo by studying ex vivo brain slices. […]

T1 sequence (P26043 whole entry): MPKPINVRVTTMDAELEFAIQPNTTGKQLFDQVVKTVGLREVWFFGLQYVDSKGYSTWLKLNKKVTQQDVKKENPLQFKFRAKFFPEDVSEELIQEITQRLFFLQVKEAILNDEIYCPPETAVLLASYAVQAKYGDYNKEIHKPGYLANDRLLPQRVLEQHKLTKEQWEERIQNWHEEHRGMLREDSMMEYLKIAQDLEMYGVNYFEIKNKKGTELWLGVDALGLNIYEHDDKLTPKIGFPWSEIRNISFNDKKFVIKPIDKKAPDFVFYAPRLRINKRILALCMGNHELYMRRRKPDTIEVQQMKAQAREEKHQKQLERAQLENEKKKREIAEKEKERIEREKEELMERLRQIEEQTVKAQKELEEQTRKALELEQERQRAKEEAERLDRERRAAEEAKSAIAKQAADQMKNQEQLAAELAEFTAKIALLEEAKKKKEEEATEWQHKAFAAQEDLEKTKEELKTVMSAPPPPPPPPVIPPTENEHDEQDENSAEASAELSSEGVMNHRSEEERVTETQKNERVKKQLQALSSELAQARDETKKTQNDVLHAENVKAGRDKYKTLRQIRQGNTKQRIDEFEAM

On to NYFTKRGWAWDGKKAL [inhibitory peptide], for which, in the data set with mice, the “Body Angle State Bent” value amounted to 6 ± 3 s, the “Body Angle State Bent (%)” value is listed as 2%, the “Body Angle State Straight” value is listed as 269 ± 45 s and the “Body Angle State Straight (%)” value amounted to 98%. Further, in the data set with mice, the “Body Elongation State Contracted” value was 48 ± 66 s, the “Body Elongation State Contracted (%)” value is recorded as 16%, the “Body Elongation State Normal” value is reported as 252 ± 66 s and the “Body Elongation State Normal (%)” value was determined as 84%. Also, in the data set on mice, the “Body Elongation State Stretched” value amounted to 0 s and the “Rotation Frequency” value was found to be 5.5 ± 1.7. Also, the “association between α5 subunit and radixin” value in data set [1] is on record as “reduced the association”. For the same sequence, in the data set with α5GABAA receptors, the “expression of α5GABAA receptors on the cell surface” value is given as “selectively prevented” and the “α5GABAA total protein production” value is “did not change”.
